Where two headings read alike, the source gives them in different places.

The ED50 is the dose that gives a 50% effect, or the effect in half of the subjects.

The test deals with phenyl-p-benzoquinone induced writhing in mice. The test can be described thus: phenyl-p-benzoquinone induced writhing test in mice (antiphenylquinone writhing), oral, with isobologram analysis. It counts as in vivo, mouse (male CF1). The settings on record: 20 min; for ED50: read-out: ED50 dose; for % mice blocked: oral. As for the experimental part:
The phenyl-p-benzoquinone induced writhing test in mice [H. Blumberg et al., Proc. Soc. […] The method simply consists of reading the % ED50 DOSE for each dose ratio on the best fit regression analysis curve from the mouse isobologram, multiplying each component by its effective species dose, and then forming the ratio of the amount of nalbuphine to zomepirac. […] [E. W. Pelikan, The Pharmacologist, 1, 73 (1959).]
All solutions are prepared fresh daily.
Each mouse is used only once, then discarded.
In order to study the interaction between nalbuphine and zomepirac, 6 precise dosage ratios of nalbuphine hydrochloride and zomepirac are selected.
The nature of the analgetic interaction (addition, synergism, or antagonism) is determined by graphing the results in a Loewe isobologram [S. Loewe, Pharm. Rev. 9:237-242, (1957)]. The isobologram is a quantitative method for measuring interactions between drugs where dose-effect relationships are depicted in a multi-dimensional array with lines connecting dose pairs that are equieffective in relationship to a common pharmacological endpoint. In this instance, the antiphenylquinone writhing test is used to estimate a common level of analgesic activity (ED50 dose) for the two component drugs separately and for each fixed dose-ratio combination.
If such substitution increases the response, the mixing together of the compounds is said to potentiate their effects and synergism exists.
Consider ED50 doses of mixtures of X units of compound B with Y units of compound A, whose ED50 doses are β and α, respectively. Given the hypothesis of additivity, all doses of mixtures satisfying the straight line relation,
will be ED50 doses. To test the hypothesis of additivity, ED50 doses of mixtures are estimated through probit analysis of data from experiments run at various ratios of A to B. Linear and curvilinear regression models are fitted to the data to estimate the amounts of A in respective ED50 doses, given the amount of B, (or, conversely, the amount of B, given A).
The regression is fitted to the data by the method of least squares. Residual squared deviations about the line of best fit are minimized in directions along lines from the origin through respective data points on the isobologram, these lines making angles with X-axis, tan^-1 (Y/X). This is accomplished by a transformation prior to the […] analysis. Its inverse is applied to transform the coordinates of the regression curve back to the X,Y coordinates of the isobologram.
A statistically significant regression will refute the hypothesis.
The method of least squares utilizes jointly the information contained in all of the separate data points. Statistical significance of the curvilinearity of the regression model establishes the existence of synergism (or antagonism) of the compounds in the biological system studied. The parameters in the model describe its intensity over the range of mixture ratios, from 0 to 1, the nature of which is seen readily when the regression is plotted on the isobologram.

`Oc1ccc2c3c1O[C@H]1[C@@H](O)CC[C@@]4(O)[C@@H](C2)N(CC2CCC2)CC[C@]314` [Nalbuphine, (-)-17-(cyclobutylmethyl)-4,5α-epoxymorphinan-3,6α,14-triol]: where the note is “Mus musculus, po”, the ED50 came out at 12 mg/kg. For the same compound, the “% mice blocked” value came to 15.6% (nalbuphine HCl 2.75 + zomepirac sodium 0 mg/kg); 24.4% (nalbuphine HCl 5.5 + zomepirac sodium 0 mg/kg); 62.2% (nalbuphine HCl 11 + zomepirac sodium 0 mg/kg); 68.9% (nalbuphine HCl 22 + zomepirac sodium 0 mg/kg); 84.4% (nalbuphine HCl 44 + zomepirac sodium 0 mg/kg).

Consider `Cc1cc(CC(=O)O)n(C)c1C(=O)c1ccc(Cl)cc1` [Zomepirac Sodium, 5-(4-chlorobenzoyl)-1,4-dimethyl-1H-pyrrole-2-acetic acid], for which the ED50 (drug alone, twenty minutes post oral dosing, mouse antiphenylquinone writhing test) was determined as 1.66 mg/kg. The “% mice blocked” value by setting is: (nalbuphine HCl 0 + zomepirac sodium 0.29 mg/kg) 13.3%; (nalbuphine HCl 0 + zomepirac sodium 0.58 mg/kg) 20.0%; (nalbuphine HCl 0 + zomepirac sodium 1.16 mg/kg) 31.1%; (nalbuphine HCl 0 + zomepirac sodium 2.32 mg/kg) 75.6%.

Values taken from US4407805A, “Analgesic mixture of nalbuphine and zomepirac” (E. I. Du Pont de Nemours and Company, priority 1982, dated 1983).
